Measured values: PMC11306024, “Novel metabolite madeirone and neomarinone extracted from Streptomyces aculeoletus as marine antibiofilm and antifouling agents” (Frontiers in Chemistry, 2024)
≈ marks a conversion by molar mass, not a printed value.

Assays:
[1] = tested on: M. luteus; experiment: Antibiofilm activity (inhibition of biofilm formation); assay type: cell-based, Micrococcus luteus DSM 20030
Description: (§1) To assess antimicrofouling activity, we selected five marine bacterial species as models: Marinobacter hydrocarbonoclasticus DSM 8798 (ATCC 49840), C. marina DSM 4741, Phaeobacter inhibens DSM 17,395, Pseusooceanicola batsensis DSM 15,984, and Micrococcus luteus DSM 20030 (ATCC 4698) ([Michael et al., 2016]). These strains, sourced from DSMZ (Leibniz Institute DSMZ—German Collection of Microorganisms and Cell Cultures), were cultured in liquid marine broth (Carl Roth GmbH, Karlsruhe, Germany) with agitation at 180 rpm or on agar-supplemented marine broth. Incubation temperatures were set at 28°C for M. hydrocarbonoclasticus and Cobetia marina, 30°C for P. inhibens and P. batsensis, while M. luteus was maintained at 37°C in Brain Heart Infusion broth (BHI, Becton Dickinson, GmbH, Heidelberg, Germany) under similar agitation conditions.
The antibiofilm potential of compounds (1) and (2) against the five marine bacterial species was investigated in 96-well polystyrene flat-bottom microplates (Nunclon Delta Surface, Thermo Scientific, Roskilde, Denmark), as described previously ([Bauermeister et al., 2019]; [Pereira et al., 2020]). In the initial screening, bacterial overnight cultures were diluted to an OD600 of 0.2 and incubated statically at appropriate temperatures. The cultures were tested at 31.25, 15.60, 7.81, 3.91, 1.95, 0.98 μg/mL concentrations (2-fold serial dilutions) of compounds (1) and (2), solubilized in DMSO, or left untreated. After 24 h (M. hydrocarbonoclasticus, C. marina) or 48 h (P. batsensis, P. inhibens, M. luteus) incubation, OD600 was measured. The planktonic cells and media were discarded, and the wells were washed twice with deionized water. Biofilms were fixed, stained, and quantified by measuring the OD600 after solubilization with acetic acid. Biofilm inhibition percentages were calculated relative to untreated bacterial species, using DMSO as a negative control and CuSO4 (0.16 μg/mL), as a positive control. All assays were performed in triplicate, and the results represent the mean and standard error of the mean (SEM). Statistical analysis was conducted using GraphPad Prism 8.0.2, employing one-way ANOVA followed by Dunnett’s multiple comparisons test against the negative control.

[2] = tested on: P. inhibens; experiment: Antibacterial activity (growth inhibition, OD600); assay type: cell-based, Phaeobacter inhibens DSM 17395; settings: 48 h
Description: as §1
(§2) The antibacterial efficacy of compounds (1) and (2) was assessed in 96-well polystyrene flat-bottom microplates (Nunclon Delta Surface, Thermo Scientific, Roskilde, Denmark) following established procedures ([Bauermeister et al., 2019]). In the initial screening, bacterial overnight cultures were diluted to an optical density (OD600nm) of 0.2 and incubated statically at appropriate temperatures. The cultures were treated with the following final concentrations per well: 31.25, 15.60, 7.81, 3.91, 1.95, and 0.98 μg/mL (2-fold serial dilutions) of the compounds, solubilized in DMSO, or left untreated. After 24 h (M. hydrocarbonoclasticus, C. marina) or 48 h (P. batsensis, P. inhibens, M. luteus) incubation, optical density at 600 nm (OD600) was measured using a Molecular Devices Spectra Max 190. Growth inhibition percentages were calculated relatively to untreated bacterial species, using DMSO as a negative control. CuSO4 (0.16 μg/mL), a recognized antifouling agent, was used as positive control. All assays were conducted in triplicate, and the results represent the mean and standard error of the mean (SEM). Statistical analysis was carried out using GraphPad Prism 8.0.2 (San Diego, CA, United States), employing one-way ANOVA followed by Dunnett’s multiple comparisons test against the negative control.

[3] = tested on: M. galloprovincialis plantigrade larvae; experiment: Mussel plantigrade larvae anti-settlement bioassay; assay type: in vivo, Mytilus galloprovincialis; settings: 15 h acute exposure, 95% confidence limits in brackets; for EC50: Mytilus galloprovincialis, 15 h, read-out: EC50 [Conf. Limits] anti-settlement
Description: (§3) The in vivo antimacrofouling activity of compounds (1) and (2) was evaluated against mussel M. galloprovincialis adhesive larvae (plantigrades) in an acute bioassay. Juvenile mussel aggregates were harvested from the intertidal rocky shore during low spring tides at Memória beach, Matosinhos, Portugal. In the laboratory, precisely before the bioassays, mussel plantigrade larvae were meticulously screened and isolated from the juvenile aggregates using a binocular microscope (Olympus SZX2-ILLT, Hamburg, Germany). The isolated larvae were then washed with filtered seawater to eliminate organic debris, and competent plantigrade larvae, characterized by foot exploratory behavior, were selected for the exposure bioassays, following established protocols ([Almeida et al., 2017]; [Almeida et al., 2020]; [Antunes et al., 2019]; [Mabrouk et al., 2020]). Plantigrades were exposed in 24-well polystyrene plates for 15 h in darkness at 18°C. DMSO served as the solvent for the testing compounds in stock and working solutions. The DMSO concentration in the tested solutions was consistently maintained at 0.1%. Each condition was replicated in four wells, with five larvae per well. Two negative controls, one with ultra-pure water and other with DMSO were included in all bioassays, along with a positive control using 0.16 μg/mL CuSO4, as a reference antifouling agent. The anti-settlement bioactivity was assessed based on the presence or absence of fixed byssal threads produced by each individual larva for all tested conditions. […] EC50 values for each compound were calculated using Probit regression analysis. Significance was considered at p < 0.01, and 95% lower and upper confidence limits (95% LCL; UCL). The software IBM SPSS Statistics 28 was used for statistical analysis. The therapeutic ratio (LC50/EC50) was employed to evaluate the effectiveness versus the toxicity of the compounds ([Qian et al., 2009]; [Almeida and Vasconcelos, 2015]).

[4] = tested on: M. hydrocarbonoclasticus; experiment: Antibacterial activity (growth inhibition, OD600); assay type: cell-based, Marinobacter hydrocarbonoclasticus DSM 8798; settings: 24 h
Description: as §1, §2

[5] = Mussel larvae acute toxicity (mortality); settings: Mytilus galloprovincialis, in vivo, other: waterborne exposure in 24-well plates; 15 h acute exposure
Description: as §3, with “Each condition was replicated in four wells, with five larvae per well. Two negative controls, one with ultra-pure water and other with DMSO were included in all bioassays, along with a positive control using 0.16 μg/mL CuSO4, as a reference antifouling agent.” left out, “Significance was considered at p < 0.01, and 95% lower and upper confidence limits (95% LCL; UCL). The software IBM SPSS Statistics 28 was used for statistical analysis. The therapeutic ratio (LC50/EC50) was employed to evaluate the effectiveness versus the toxicity of the compounds ([Qian et al., 2009]; [Almeida and Vasconcelos, 2015]).” left out

Row | SMILES | Biofilm inhibition (%) M. luteus ([1]; 0.98 µg/mL, 48 h) | Biofilm inhibition (%) M. luteus ([1]; 1.95 µg/mL, 48 h) | inhibition at 31.25 µg/mL ([1]; Micrococcus luteus, 48 h) | Growth inhibition (%) P. inhibens ([2]; 0.98 µg/mL) | Growth inhibition (%) P. inhibens ([2]; 1.95 µg/mL) | Growth inhibition (%) P. inhibens ([2]; 3.91 µg/mL) | Growth inhibition (%) P. inhibens ([2]; 7.81 µg/mL) | Growth inhibition (%) P. inhibens ([2]; 15.60 µg/mL) | EC50 [Conf. Limits] anti-settlement [3] | EC50 [3] | Growth inhibition (%) M. hydrocarbonoclasticus ([4]; 0.98 µg/mL) | Growth inhibition (%) M. hydrocarbonoclasticus ([4]; 1.95 µg/mL) | Growth inhibition (%) M. hydrocarbonoclasticus ([4]; 3.91 µg/mL) | Growth inhibition (%) M. hydrocarbonoclasticus ([4]; 7.81 µg/mL) | Growth inhibition (%) M. hydrocarbonoclasticus ([4]; 15.60 µg/mL) | LC50 at 15 h [5] | further results
1 | CC1=CCC[C@@H](C)[C@]1(C)CC[C@@]1(C)c2c(O)cc3c(c2O[C@@H]1C)C(=O)C(C)=C(O)C3=O [compound 2, neomarinone] | N.I. | N.I. | 33.3 ± 7.3% | N.I. | N.I. | N.I. | N.I. | N.I. | 0.119 (0.015–0.253) µg/mL | 0.12 µg/mL (≈ 0.283 µM) | N.I. | N.I. | N.I. | N.I. | N.I. | > 4 µg/mL | Biofilm inhibition, up to (highest over tested concentrations) M. luteus ([1]; 0.98-31.25 µg/mL tested): up to 40%; inhibition at 3.91 µg/mL ([1]; Micrococcus luteus, 3.91 µg/mL, 48 h): 7.8 ± 16.9%; inhibition at 7.81 µg/mL ([1]; Micrococcus luteus, 7.81 µg/mL, 48 h): 29.9 ± 12.4%; inhibition at 15.6 µg/mL ([1]; Micrococcus luteus, 15.60 µg/mL, 48 h): 41 ± 8.2%; Growth inhibition (%) P. inhibens ([2]; 31.25 µg/mL): N.I.; inhibition at 31.25 µg/mL ([4]; Marinobacter nauticus, 31.25 µg/mL): 4.2 ± 0.8%
2 | CC1=CCC[C@@H](C)[C@]1(C)CC[C@@]1(C)c2c(O)cc3c(c2O[C@@H]1C)C(=O)C=C(CO)C3=O (relative stereo) [compound 1, madeirone] | N.I. | N.I. | 35.3 ± 0.2% | N.I. | N.I. | N.I. | N.I. | N.I. | 1.755 (1.308–5.492) µg/mL | 1.76 µg/mL (≈ 4.15 µM) | N.I. | N.I. | N.I. | N.I. | N.I. | > 10 µg/mL | Biofilm inhibition (%) M. luteus ([1]; 3.91 µg/mL, 48 h): N.I.; Biofilm inhibition (%) M. luteus ([1]; 7.81 µg/mL, 48 h): N.I.; Biofilm inhibition (%) M. luteus ([1]; 15.60 µg/mL, 48 h): N.I.; inhibition at 31.25 µg/mL ([2]; Phaeobacter inhibens, 31.25 µg/mL): 24.3 ± 0.5%; Growth inhibition (%) M. hydrocarbonoclasticus ([4]; 31.25 µg/mL): N.I.
